Values after ≈ are worked out from the molar mass of the structure shown.
Key:
E. coli K12 PBP3 = target: T1, E. coli K12 PBP3 (Escherichia coli, UniProt P0AD68); assay: biochemical; format: binding
T1 construct: made in house
Summary of the method: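 Fluorescence polarization (ex 490/em 520 nm) competition of inhibitors against Bocillin-FL at 0.1 μM, read up to 60 min. Final PBP levels: E. coli PBP3 1.5 μM; A. baumannii PBP2 2.5 μM, PBP3 0.2 μM in Tris pH 8.0/NaCl/glycerol/Tween 20; N. gonorrhoeae PBP2 […] in Hepes pH 8.0/NaCl/glycerol. EC50 = concentration halving PBP-bound Bocillin-FL.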

P. aeruginosa PBP3 = target: T2, P. aeruginosa PBP3 (Pseudomonas aeruginosa, UniProt G3XD46); assay: Bocillin-FL fluorescence polarization competition binding assay, P. aeruginosa PBP3; conditions: fluorescence polarization competition binding assay using Bocillin-FL
T2 construct: made in house
T2 sequence (G3XD46 whole entry): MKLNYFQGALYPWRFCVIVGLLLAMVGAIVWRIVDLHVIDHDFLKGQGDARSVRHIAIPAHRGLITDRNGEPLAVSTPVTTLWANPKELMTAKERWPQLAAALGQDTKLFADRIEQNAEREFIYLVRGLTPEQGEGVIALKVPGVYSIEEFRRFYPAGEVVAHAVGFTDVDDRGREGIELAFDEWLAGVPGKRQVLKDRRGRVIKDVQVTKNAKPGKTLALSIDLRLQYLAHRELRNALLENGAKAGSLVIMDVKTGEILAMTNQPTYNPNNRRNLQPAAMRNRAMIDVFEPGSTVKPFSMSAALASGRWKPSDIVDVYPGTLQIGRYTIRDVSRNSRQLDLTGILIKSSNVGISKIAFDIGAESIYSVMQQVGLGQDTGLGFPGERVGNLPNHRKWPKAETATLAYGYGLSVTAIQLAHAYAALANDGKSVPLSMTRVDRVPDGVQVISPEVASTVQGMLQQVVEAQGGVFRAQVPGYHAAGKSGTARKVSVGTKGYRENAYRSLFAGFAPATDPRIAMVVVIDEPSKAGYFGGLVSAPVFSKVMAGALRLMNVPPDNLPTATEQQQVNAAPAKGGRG
Summary of the method: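 Binding of boronic acid inhibitors to purified Pseudomonas aeruginosa (PA01) PBP3 was measured by fluorescence polarization competition with Bocillin-FL, a fluorescent penicillin V. Reactions of 80 μl contained 0.75 μM PBP3 and 0.1 μM Bocillin-FL in 50 mM Hepes (pH 8.0), 300 mM NaCl and 5% (v/v) glycerol, in black 384-well plates. FP (Excitation 490 nm, Emission 520 nm) was read for up to 60 minutes. EC50 is the concentration that halves PBP-bound Bocillin-FL.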

E. coli AG100 = assay: Broth microdilution MIC in CAMHB; format: cell-based; conditions: Escherichia coli; E. coli AG100 (wild-type parent); MHB; read-out: Minimum Inhibitory Concentration, E. coli AG100
Summary of the method: (§1)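 MIC, read by eye, is the lowest compound concentration giving no bacterial growth after 16-20 h at 37° C. Test compounds are serially diluted 2-fold in CAMHB and seeded with 2-8×10^5 CFU/mL of bacteria taken from a 3-5 h shaking culture, following CLSI methods.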

E. coli ATCC 25922 = assay: Broth microdilution MIC in CAMHB; format: cell-based; conditions: Escherichia coli, ATCC25922; E. coli ATCC 25922; MHB; read-out: Minimum Inhibitory Concentration, E. coli 25922
Summary of the method: as §1

E. coli 901C = assay: Broth microdilution MIC in CAMHB; format: cell-based; conditions: Escherichia coli; E. coli 901C (hyper-permeable); MHB; read-out: Minimum Inhibitory Concentration, E. coli 901C
Summary of the method: as §1

P. aeruginosa ATCC 35151 = assay: Broth microdilution MIC in CAMHB; format: cell-based; conditions: Pseudomonas aeruginosa, ATCC35151; MHB; hyper-permeable strain; read-out: Minimum Inhibitory Concentration, P. aeruginosa ATCC 35151
Summary of the method: as §1

A. baumannii ATCC 19606 = assay: Broth microdilution MIC in CAMHB; format: cell-based; conditions: Acinetobacter baumannii, ATCC19606; MHB; read-out: Minimum Inhibitory Concentration, A. baumannii ATCC 19606
Summary of the method: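 Hyper-permeable or efflux-deficient strains serve to probe outer-membrane penetration. Growth inhibition is scored visually after 16-20 h at 37° C in CAMHB, starting from 2-8×10^5 CFU/mL.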

P. aeruginosa ATCC 27853 = assay: Broth microdilution MIC in CAMHB; format: cell-based; conditions: Pseudomonas aeruginosa, ATCC27853; MHB; read-out: Minimum Inhibitory Concentration, P. aeruginosa ATCC 27853
Summary of the method: as §1

[1] = system: K. pneumoniae UMM producing SHV-5 and KPC-2; assay: Broth microdilution MIC in CAMHB; format: cell-based; conditions: Klebsiella pneumoniae, read-out: Minimum Inhibitory Concentration, K. pneumoniae UMM
Summary of the method: as §1

T1 sequence (P0AD68 1-577): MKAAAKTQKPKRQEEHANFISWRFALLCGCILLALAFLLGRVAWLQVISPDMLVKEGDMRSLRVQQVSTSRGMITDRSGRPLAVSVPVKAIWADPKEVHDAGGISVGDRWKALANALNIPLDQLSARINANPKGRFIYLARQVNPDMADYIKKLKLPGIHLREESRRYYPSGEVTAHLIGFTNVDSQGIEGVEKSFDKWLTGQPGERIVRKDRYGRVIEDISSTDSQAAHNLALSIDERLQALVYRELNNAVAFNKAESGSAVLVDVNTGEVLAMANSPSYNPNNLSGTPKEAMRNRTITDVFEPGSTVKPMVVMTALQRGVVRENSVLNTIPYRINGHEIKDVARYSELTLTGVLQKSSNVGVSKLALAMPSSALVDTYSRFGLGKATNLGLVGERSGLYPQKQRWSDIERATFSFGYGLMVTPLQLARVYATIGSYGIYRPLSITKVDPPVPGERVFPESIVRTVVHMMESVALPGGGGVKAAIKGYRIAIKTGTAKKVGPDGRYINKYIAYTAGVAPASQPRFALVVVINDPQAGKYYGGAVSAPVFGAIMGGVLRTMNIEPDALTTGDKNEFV

Row | SMILES | EC50 (E. coli K12 PBP3) | P. aeruginosa PBP3 Potency (P. aeruginosa PBP3) | MIC (E. coli AG100) | MIC (E. coli ATCC 25922) | MIC (E. coli 901C) | MIC (P. aeruginosa ATCC 35151) | MIC (A. baumannii ATCC 19606) | MIC (P. aeruginosa ATCC 27853) | MIC [1]
1 | CCN1CCN(C(=O)NC(C(=O)N[C@H]2Cc3cccc(C(=O)O)c3OB2O)c2cc(C#N)c(O)cc2F)C(=O)C1=O (stereo partly drawn) [Example 209, (3R)-3-(2-(5-cyano-2-fluoro-4-hydroxyphenyl)-2-(4-ethyl-2,3-dioxopiperazine-1-carboxamido)acetamido)-2-hydroxy-3,4-dihydro-2H-benzo[e][1,2]oxaborinine-8-carboxylic acid] | < 30 µM | D (D represents a potency <10 μM) | 32 to 64 µg/mL (≈ 56.4 to 113 µM) | 32 to 64 µg/mL (≈ 56.4 to 113 µM) | < 0.25 µg/mL | < 0.25 µg/mL | > 128 µg/mL | > 128 µg/mL | 32 to 64 µg/mL (≈ 56.4 to 113 µM)
2 | CCN1CCN(C(=O)NC(C(=O)N[C@H]2Cc3cccc(C(=O)O)c3OB2O)c2ccc(C(=O)O)c(O)c2)C(=O)C1=O (stereo partly drawn) [Example 196, (3R)-3-(2-(4-carboxy-3-hydroxyphenyl)-2-(4-ethyl-2,3-dioxopiperazine-1-carboxamido)acetamido)-2-hydroxy-3,4-dihydro-2H-benzo[e][1,2]oxaborinine-8-carboxylic acid] | < 30 µM | D (D represents a potency <10 μM) | 32 to 64 µg/mL (≈ 56.3 to 113 µM) | 32 to 64 µg/mL (≈ 56.3 to 113 µM) | < 0.25 µg/mL | < 0.25 µg/mL | > 128 µg/mL | 32 to 64 µg/mL (≈ 56.3 to 113 µM) | 8 to 16 µg/mL (≈ 14.1 to 28.2 µM)
3 | CS(=O)(=O)N1CCN(C(=O)N[C@@H](C(=O)N[C@H]2Cc3ccc(F)c(C(=O)O)c3OB2O)c2cc(F)c(O)c(O)c2Cl)C1=O (single isomer, unassigned) [Example 189] | < 30 µM | D (D represents a potency <10 μM) | 8 to 16 µg/mL (≈ 12.6 to 25.3 µM) | 2 to 4 µg/mL (≈ 3.16 to 6.32 µM) | 0.5 to 1 µg/mL (≈ 0.79 to 1.58 µM) | 0.5 to 1 µg/mL (≈ 0.79 to 1.58 µM) | 0.5 to 1 µg/mL (≈ 0.79 to 1.58 µM) | 2 to 4 µg/mL (≈ 3.16 to 6.32 µM) | > 128 µg/mL
4 | CCN1CCN(C(=O)NC(C(=O)N[C@H]2Cc3cccc(C(=O)O)c3OB2O)c2ccc(O)c(Cl)c2F)C(=O)C1=O (stereo partly drawn) [Example 185, (3R)-3-(2-(3-chloro-2-fluoro-4-hydroxyphenyl)-2-(4-ethyl-2,3-dioxopiperazine-1-carboxamido)acetamido)-2-hydroxy-3,4-dihydro-2H-benzo[e][1,2]oxaborinine-8-carboxylic acid] | < 30 µM | D (D represents a potency <10 μM) | 32 to 64 µg/mL (≈ 55.5 to 111 µM) | 32 to 64 µg/mL (≈ 55.5 to 111 µM) | < 0.25 µg/mL | 0.5 to 1 µg/mL (≈ 0.867 to 1.73 µM) | > 128 µg/mL | > 128 µg/mL | 32 to 64 µg/mL (≈ 55.5 to 111 µM)
5 | CCN1CCN(C(=O)NC(C(=O)N[C@H]2Cc3cccc(C(=O)O)c3OB2O)c2c(F)cc(NC(C)=O)cc2F)C(=O)C1=O (stereo partly drawn) [Example 188, (3R)-3-(2-(4-acetamido-2,6-difluorophenyl)-2-(4-ethyl-2,3-dioxopiperazine-1-carboxamido)acetamido)-2-hydroxy-3,4-dihydro-2H-benzo[e][1,2]oxaborinine-8-carboxylic acid] | < 30 µM | D (D represents a potency <10 μM) | 32 to 64 µg/mL (≈ 53.2 to 106 µM) | 32 to 64 µg/mL (≈ 53.2 to 106 µM) | < 0.25 µg/mL | 0.5 to 1 µg/mL (≈ 0.831 to 1.66 µM) | > 128 µg/mL | > 128 µg/mL | 32 to 64 µg/mL (≈ 53.2 to 106 µM)
6 | NCCN1CCN(C(=O)N[C@@H](C(=O)N[C@H]2Cc3cccc(C(=O)O)c3OB2O)c2c(O)cc(O)cc2F)C(=O)C1=O (single isomer, unassigned) [Example 194] | < 30 µM | D (D represents a potency <10 μM) | 8 to 16 µg/mL (≈ 14 to 27.9 µM) | 8 to 16 µg/mL (≈ 14 to 27.9 µM) | 0.5 to 1 µg/mL (≈ 0.872 to 1.74 µM) | 0.5 to 1 µg/mL (≈ 0.872 to 1.74 µM) | 32 to 64 µg/mL (≈ 55.8 to 112 µM) | > 128 µg/mL | 8 to 16 µg/mL (≈ 14 to 27.9 µM)
7 | NCCN1CCN(C(=O)N[C@H](C(=O)N[C@H]2Cc3cccc(C(=O)O)c3OB2O)c2ccc(O)c(Cl)c2F)C(=O)C1=O (single isomer, unassigned) [Example 187] | 30 to 500 µM | B (B represents a potency between 30 μM and 500 μM inclusive) | > 128 µg/mL | > 128 µg/mL | 2 to 4 µg/mL (≈ 3.38 to 6.76 µM) | 2 to 4 µg/mL (≈ 3.38 to 6.76 µM) | > 128 µg/mL | > 128 µg/mL | > 128 µg/mL
8 | CCN1CCN(C(=O)NC(C(=O)N[C@H]2Cc3cccc(C(=O)O)c3OB2O)c2cc(NS(N)(=O)=O)ccc2F)C(=O)C1=O (stereo partly drawn) [Example 197, (3R)-3-(2-(4-ethyl-2,3-dioxopiperazine-1-carboxamido)-2-(2-fluoro-5-(sulfamoylamino)phenyl)acetamido)-2-hydroxy-3,4-dihydro-2H-benzo[e][1,2]oxaborinine-8-carboxylic acid] | < 30 µM | D (D represents a potency <10 μM) | 8 to 16 µg/mL (≈ 12.9 to 25.8 µM) | 8 to 16 µg/mL (≈ 12.9 to 25.8 µM) | < 0.25 µg/mL | < 0.25 µg/mL | 32 to 64 µg/mL (≈ 51.6 to 103 µM) | > 128 µg/mL | 8 to 16 µg/mL (≈ 12.9 to 25.8 µM)
9 | CCN1CCN(C(=O)NC(C(=O)N[C@H]2Cc3cccc(C(=O)O)c3OB2O)c2c(F)cc(NC(=O)NC)cc2F)C(=O)C1=O (stereo partly drawn) [Example 213, (3R)-3-(2-(2,6-difluoro-4-(3-methylureido)phenyl)-2-(4-ethyl-2,3-dioxopiperazine-1-carboxamido)acetamido)-2-hydroxy-3,4-dihydro-2H-benzo[e][1,2]oxaborinine-8-carboxylic acid] | < 30 µM | D (D represents a potency <10 μM) | 32 to 64 µg/mL (≈ 51.9 to 104 µM) | 32 to 64 µg/mL (≈ 51.9 to 104 µM) | < 0.25 µg/mL | 0.5 to 1 µg/mL (≈ 0.811 to 1.62 µM) | > 128 µg/mL | > 128 µg/mL | 32 to 64 µg/mL (≈ 51.9 to 104 µM)
10 | O=C(O)c1cccc2c1OB(O)[C@@H](NC(=O)C(NC(=O)N1CCN(C3CNC3)C(=O)C1=O)c1c(F)cc(O)cc1F)C2 (stereo partly drawn) [Example 212, (3R)-3-(2-(4-(azetidin-3-yl)-2,3-dioxopiperazine-1-carboxamido)-2-(2,6-difluoro-4-hydroxyphenyl)acetamido)-2-hydroxy-3,4-dihydro-2H-benzo[e][1,2]oxaborinine-8-carboxylic acid] | < 30 µM | D (D represents a potency <10 μM) | 8 to 16 µg/mL (≈ 13.6 to 27.2 µM) | 8 to 16 µg/mL (≈ 13.6 to 27.2 µM) | 0.5 to 1 µg/mL (≈ 0.851 to 1.7 µM) | 0.5 to 1 µg/mL (≈ 0.851 to 1.7 µM) | > 128 µg/mL | > 128 µg/mL | 8 to 16 µg/mL (≈ 13.6 to 27.2 µM)
11 | CCN1CCN(C(=O)NC(C(=O)N[C@H]2Cc3cccc(C(=O)O)c3OB2O)c2cc(C#N)c(OC)cc2F)C(=O)C1=O (stereo partly drawn) [Example 192, (3R)-3-(2-(5-cyano-2-fluoro-4-methoxyphenyl)-2-(4-ethyl-2,3-dioxopiperazine-1-carboxamido)acetamido)-2-hydroxy-3,4-dihydro-2H-benzo[e][1,2]oxaborinine-8-carboxylic acid] | 30 to 500 µM | D (D represents a potency <10 μM) | > 128 µg/mL | > 128 µg/mL | 2 to 4 µg/mL (≈ 3.44 to 6.88 µM) | 2 to 4 µg/mL (≈ 3.44 to 6.88 µM) | > 128 µg/mL | > 128 µg/mL | > 128 µg/mL
12 | NCCN1CCN(C(=O)N[C@@H](C(=O)N[C@H]2Cc3cccc(C(=O)O)c3OB2O)c2c(F)cccc2Cl)C(=O)C1=O (single isomer, unassigned) [Example 205] | 30 to 500 µM | C (C represents a potency between 10 and 30 μM) | > 128 µg/mL | > 128 µg/mL | 8 to 16 µg/mL (≈ 13.9 to 27.8 µM) | 8 to 16 µg/mL (≈ 13.9 to 27.8 µM) | > 128 µg/mL | > 128 µg/mL | > 128 µg/mL
13 | NCCN1CCN(C(=O)N[C@@H](C(=O)N[C@H]2Cc3cccc(C(=O)O)c3OB2O)c2ccc(O)c([N+](=O)[O-])c2)C(=O)C1=O (single isomer, unassigned) [Example 199] | < 30 µM | D (D represents a potency <10 μM) | > 128 µg/mL | 32 to 64 µg/mL (≈ 54.8 to 110 µM) | 0.5 to 1 µg/mL (≈ 0.856 to 1.71 µM) | 0.5 to 1 µg/mL (≈ 0.856 to 1.71 µM) | > 128 µg/mL | > 128 µg/mL | > 128 µg/mL
14 | NCCCN1CCN(C(=O)N[C@@H](C(=O)N[C@H]2Cc3cccc(C(=O)O)c3OB2O)c2c(O)cc(O)cc2F)C(=O)C1=O (single isomer, unassigned) [Example 195] | < 30 µM | D (D represents a potency <10 μM) | 8 to 16 µg/mL (≈ 13.6 to 27.2 µM) | 8 to 16 µg/mL (≈ 13.6 to 27.2 µM) | 0.5 to 1 µg/mL (≈ 0.851 to 1.7 µM) | 0.5 to 1 µg/mL (≈ 0.851 to 1.7 µM) | 32 to 64 µg/mL (≈ 54.5 to 109 µM) | > 128 µg/mL | 8 to 16 µg/mL (≈ 13.6 to 27.2 µM)

From patent US20230114728A1 (Venatorx Pharmaceuticals, Inc., priority 2019, published 2023)
